Experimental data from patent US20020137929A1, “1 - (3-heterocyclylphenyl) isothiourea, -isourea, -guanidine and -amidine herbicidal agents” (Intellectual Property Department, BASF Aktiengesellschaft, priority 1998, published 2002).

Key:
ECHCG (Barnyardgrass) [1] = assay: Preemergence herbicidal evaluation; format: in vivo, Echinochloa crus-galli; settings: rated 4-5 weeks after treatment
Method in brief: (§1)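 Each species is sown separately in potting soil over roughly an inch of soil before any emergence. The soil surface then receives an aqueous acetone spray delivering about 0.0156 to 0.500 kg/ha of compound. After four to five weeks, injury is scored from 0 to 9 relative to a control.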

ZEAMX (Corn, Field) [2] = assay: Postemergence herbicidal evaluation; format: in vivo, Zea mays; settings: postemergence
Method in brief: (§2)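 Two-week seedlings sprayed postemergence at 40 psi; formulation: 1:1 acetone/water, 0.5% TWEEN 20; application ≈0.0156–0.500 kg/ha. Greenhouse grow-out, then 0–9 visual scoring at 4–5 weeks.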

[3] = test system: IPOHE (Morningglory, Ivyleaf); assay: Postemergence herbicidal evaluation; format: in vivo, Ipomoea hederacea; settings: postemergence
Method in brief: as §2

ZEAMX (Corn, Field) [4] = assay: Preemergence herbicidal evaluation; format: in vivo, Zea mays; settings: rated 4-5 weeks after treatment
Method in brief: as §1

CASOB (Sicklepod) = assay: Preemergence herbicidal evaluation; format: in vivo, Cassia obtusifolia; settings: rated 4-5 weeks after treatment
Method in brief: as §1

[5] = test system: CHEAL (Lambsquarters, Common); assay: Postemergence herbicidal evaluation; format: in vivo, Chenopodium album; settings: postemergence
Method in brief: as §2

ABUTH (Velvetleaf) [6] = assay: Preemergence herbicidal evaluation; format: in vivo, Abutilon theophrasti; settings: rated 4-5 weeks after treatment
Method in brief: as §1

ABUTH (Velvetleaf) [7] = assay: Postemergence herbicidal evaluation; format: in vivo, Abutilon theophrasti; settings: postemergence
Method in brief: as §2

[8] = test system: IPOHE (Morningglory, Ivyleaf); assay: Preemergence herbicidal evaluation; format: in vivo, Ipomoea hederacea; settings: rated 4-5 weeks after treatment
Method in brief: as §1

[9] = test system: CHEAL (Lambsquarters, Common); assay: Preemergence herbicidal evaluation; format: in vivo, Chenopodium album; settings: rated 4-5 weeks after treatment
Method in brief: as §1

ECHCG (Barnyardgrass) [10] = assay: Postemergence herbicidal evaluation; format: in vivo, Echinochloa crus-galli; settings: postemergence
Method in brief: as §2

[11] = test system: TRZAWR (Wheat, Winter, cv Riband); assay: Preemergence herbicidal evaluation; format: in vivo, Triticum aestivum; settings: rated 4-5 weeks after treatment
Method in brief: as §1

SETVI (Foxtail, Green) = assay: Postemergence herbicidal evaluation; format: in vivo, Setaria viridis; settings: postemergence
Method in brief: as §2

[12] = test system: GLXMAW (Soybean, Williams); assay: Preemergence herbicidal evaluation; format: in vivo, Glycine max, (L.) Merr. cv Williams; settings: rated 4-5 weeks after treatment
Method in brief: as §1

ORYSAT (Rice, Tebonnet) = assay: Postemergence herbicidal evaluation; format: in vivo, Oryza sativa, (L.) Tebonnet; settings: postemergence
Method in brief: as §2

CC(C)COC(=O)CN1C(=O)CSC1=Nc1cc(-n2c(=O)cc(C(F)(F)F)n(C)c2=O)c(F)cc1Cl [Compound 121, Isobutyl 2-{{2-chloro-5-[3,6-dihydro-3-methyl-2,6-dioxo-4-(trifluoromethyl)-1(2H)-pyrimidinyl]-4-fluorophenyl}imino}-4-oxo-3-thiazolidineacetate]
8.0: Preemergence herbicidal rating ZEAMX (ZEAMX (Corn, Field) [4]; rate 0.2500 kg/ha) | Preemergence herbicidal rating TRZAWR ([11]; rate 0.2500 kg/ha) | Herbicidal rating SETVI (SETVI (Foxtail, Green); rate 0.0156 kg/ha) | Herbicidal rating SETVI (SETVI (Foxtail, Green); rate 0.0313 kg/ha)
4.0: Preemergence herbicidal rating ECHCG (ECHCG (Barnyardgrass) [1]; rate 0.0625 kg/ha) | Preemergence herbicidal rating ZEAMX (ZEAMX (Corn, Field) [4]; rate 0.0313 kg/ha) | Herbicidal rating CHEAL ([5]; rate 0.0156 kg/ha) | Preemergence herbicidal rating IPOHE ([8]; rate 0.1250 kg/ha)
9.0: Preemergence herbicidal rating ECHCG (ECHCG (Barnyardgrass) [1]; rate 0.2500 kg/ha) | Herbicidal rating IPOHE ([3]; rate 0.0156 kg/ha) | Herbicidal rating IPOHE ([3]; rate 0.0313 kg/ha) | Herbicidal rating IPOHE ([3]; rate 0.0625 kg/ha) | Preemergence herbicidal rating CASOB (CASOB (Sicklepod); rate 0.1250 kg/ha) | Preemergence herbicidal rating CASOB (CASOB (Sicklepod); rate 0.2500 kg/ha) | Herbicidal rating CHEAL ([5]; rate 0.0625 kg/ha) | Preemergence herbicidal rating ABUTH (ABUTH (Velvetleaf) [6]; rate 0.0156 kg/ha) | Preemergence herbicidal rating ABUTH (ABUTH (Velvetleaf) [6]; rate 0.0313 kg/ha) | Preemergence herbicidal rating ABUTH (ABUTH (Velvetleaf) [6]; rate 0.0625 kg/ha) | Preemergence herbicidal rating ABUTH (ABUTH (Velvetleaf) [6]; rate 0.1250 kg/ha) | Preemergence herbicidal rating ABUTH (ABUTH (Velvetleaf) [6]; rate 0.2500 kg/ha) | Herbicidal rating ABUTH (ABUTH (Velvetleaf) [7]; rate 0.0156 kg/ha) | Herbicidal rating ABUTH (ABUTH (Velvetleaf) [7]; rate 0.0313 kg/ha) | Herbicidal rating ABUTH (ABUTH (Velvetleaf) [7]; rate 0.0625 kg/ha) | Preemergence herbicidal rating IPOHE ([8]; rate 0.2500 kg/ha) | Preemergence herbicidal rating CHEAL ([9]; rate 0.0156 kg/ha) | Preemergence herbicidal rating CHEAL ([9]; rate 0.0313 kg/ha) | Preemergence herbicidal rating CHEAL ([9]; rate 0.0625 kg/ha) | Preemergence herbicidal rating CHEAL ([9]; rate 0.1250 kg/ha) | Preemergence herbicidal rating CHEAL ([9]; rate 0.2500 kg/ha) | Herbicidal rating SETVI (SETVI (Foxtail, Green); rate 0.0625 kg/ha)
1.0: Preemergence herbicidal rating GLXMAW ([12]; rate 0.1250 kg/ha)
5.0: Herbicidal rating ZEAMX (ZEAMX (Corn, Field) [2]; rate 0.0156 kg/ha) | Herbicidal rating ZEAMX (ZEAMX (Corn, Field) [2]; rate 0.0313 kg/ha)
7.0: Preemergence herbicidal rating ECHCG (ECHCG (Barnyardgrass) [1]; rate 0.1250 kg/ha) | Preemergence herbicidal rating ZEAMX (ZEAMX (Corn, Field) [4]; rate 0.1250 kg/ha) | Herbicidal rating CHEAL ([5]; rate 0.0313 kg/ha) | Preemergence herbicidal rating TRZAWR ([11]; rate 0.1250 kg/ha)
0.0: Preemergence herbicidal rating ECHCG (ECHCG (Barnyardgrass) [1]; rate 0.0156 kg/ha) | Preemergence herbicidal rating ECHCG (ECHCG (Barnyardgrass) [1]; rate 0.0313 kg/ha) | Preemergence herbicidal rating ZEAMX (ZEAMX (Corn, Field) [4]; rate 0.0156 kg/ha) | Preemergence herbicidal rating CASOB (CASOB (Sicklepod); rate 0.0156 kg/ha) | Preemergence herbicidal rating CASOB (CASOB (Sicklepod); rate 0.0313 kg/ha) | Preemergence herbicidal rating CASOB (CASOB (Sicklepod); rate 0.0625 kg/ha) | Preemergence herbicidal rating IPOHE ([8]; rate 0.0156 kg/ha) | Preemergence herbicidal rating IPOHE ([8]; rate 0.0313 kg/ha) | Herbicidal rating ECHCG (ECHCG (Barnyardgrass) [10]; rate 0.0156 kg/ha) | Herbicidal rating ECHCG (ECHCG (Barnyardgrass) [10]; rate 0.0313 kg/ha) | Herbicidal rating ECHCG (ECHCG (Barnyardgrass) [10]; rate 0.0625 kg/ha) | Preemergence herbicidal rating TRZAWR ([11]; rate 0.0156 kg/ha) | Preemergence herbicidal rating GLXMAW ([12]; rate 0.0156 kg/ha) | Preemergence herbicidal rating GLXMAW ([12]; rate 0.0313 kg/ha) | Preemergence herbicidal rating GLXMAW ([12]; rate 0.0625 kg/ha)
2.0: Preemergence herbicidal rating TRZAWR ([11]; rate 0.0313 kg/ha) | Preemergence herbicidal rating GLXMAW ([12]; rate 0.2500 kg/ha) | Herbicidal rating ORYSAT (ORYSAT (Rice, Tebonnet); rate 0.0156 kg/ha)
6.0: Herbicidal rating ZEAMX (ZEAMX (Corn, Field) [2]; rate 0.0625 kg/ha) | Preemergence herbicidal rating ZEAMX (ZEAMX (Corn, Field) [4]; rate 0.0625 kg/ha)
2.5: Herbicidal rating ORYSAT (ORYSAT (Rice, Tebonnet); rate 0.0313 kg/ha)
3.0: Preemergence herbicidal rating IPOHE ([8]; rate 0.0625 kg/ha) | Preemergence herbicidal rating TRZAWR ([11]; rate 0.0625 kg/ha) | Herbicidal rating ORYSAT (ORYSAT (Rice, Tebonnet); rate 0.0625 kg/ha)
